Laboratory results: patent US12691109B2, “Bifunctional aggregation-induced emission luminogen for monitoring and killing of multidrug-resistant bacteria” (The Hong Kong University of Science and Technology, priority 2018, dated 2026)

Assays:
Type in all cases: cell-based
[1] = system: human umbilical vein endothelial cells (HUVECs); test: Cytotoxicity, CCK-8 kit
Description: (§1) FIGS. 18A-B are graphs depicting cell viability of human amniotic fluid stem cells (HAFs) and human umbilical vein endothelial cells (HUVECs) after incubation with TriPE-NT at different concentrations of 0, 2, 5, 10 and 20 μM under dark conditions and upon white-light illumination (4 mW cm^−2) for 2 and 30 min.
(§2) Cytotoxicity of the TriPE-NT was tested because a good antibacterial drug should have the ability to kill only bacteria and have no toxicity to human or animal cells. The biocompatibility of TriPE-NT was evaluated by CCK-8 kit.

[2] = system: human skin fibroblast cells (HAFs); test: Cytotoxicity, CCK-8 kit
Description: as §1, §2

E. coli [3] = test: Bacteria staining with TriPE-NT and PI, CLSM; settings: 10 min
Description: (§3) TriPE-NT: Ex, 405 nm, Em, 500-560 nm; PI: Ex, 514 nm, Em, 600-700 nm.
(§4) FIG. 21B is a graph plotting stained percentages for E. coli, MDR E. coli, K. pneumoniae, MDR K. pneumoniae, S. epidermidis, MDR S. epidermidis, S. aureus, and MDR S. aureus.
(§5) FIG. 21C is a graph plotting percentage of dead bacteria stained by propidium iodine (PI) after the bacteria were incubated with 10 μM of TriPE-NT or PI for 10 min.
(§6) To indicate the status of the bacteria after TriPE-NT treatment, the bacteria was incubated with commercial dead bacteria-staining fluorescent reagent propidium iodide (PI) and TriPE-NT at the same time. Thanks to the AIE characteristics and water solubility of TriPE-NT, there was almost no background fluorescence in the imaging field. E. coli and S. epidermidis, which emitted bright orange (TriPE-NT) or red (PI) fluorescence, are clearly visualized under confocal laser scanning microscope (CLSM) (FIG. 21A-C, 22-23). […] In comparison, relatively low percentage of Gram-negative bacteria were stained by TriPE-NT (e.g., 88.1±9.8% E. coli, 84.3±12.7% MDR E. coli, 47.9±7.7% K. pneumoniae and 35.8±4.9% MDR K. pneumoniae) (FIG. 21B, FIG. 22). […] By contrast, relatively low percentages of E. coli (22.1±12.2% E. coli) were co-stained by both TriPE-NT and PI (FIGS. 21A, C), which is also similar to other Gram-negative bacteria (15.3±3.7%, MDR E. coli, 8.8±3.2%, K. pneumoniae and 6.4±2.6% MDR K. pneumoniae) (FIGS. 21A & C, 22). The reason for this difference possibly is ascribed to the extra membrane of Gram-negative bacteria which is absent in Gram-positive bacteria. These observations also illustrated that both Gram-negative bacteria and Gram-positive bacteria are vulnerable to TriPE-NT treatment, the possible reason is that these bacteria with negatively charged membranes, could anchor, uptake, and aggregate the positively charged probe, which restricts the intramolecular motion of the probe and causes their fluorescence emission.

S. epidermidis [4] = test: Bacteria staining with TriPE-NT and PI, CLSM; settings: 10 min
Description: as §3, §4, §5, §6

MDR E. coli = test: Morphological changes of bacteria by FE-SEM and FEHR-TEM
Text: (§7) FIGS. 24A-E show images of TriPE-NT-induced morphological changes of E. coli, MDR E. coli, S. epidermidis and MDR S. epidermidis with white light irradiation by FE-SEM and FEHR-TEM, bacteria without treatment were set as controls. […] FIG. 24D is a graph plotting elemental curve measured on the super-thin slices of TriPE-NT-treated E. coli from the region marked by the rectangle in FIG. 24C. FIG. 24 E is a graph plotting the elemental curve measured on the super-thin slices of TriPE-NT-treated S. epidermidis from the region marked by rectangle in FIG. 24C.
(§8) To gain more insights into the TriPE-NT-bacteria interactions, FE-SEM and field-emission high resolution transmission electron microscope (FEHR-TEM) were used to visualize the morphological changes of the bacteria under TriPE-NT treatment, selecting E. coli (G−), MDR E. coli (G−), and S. epidermidis (G+), MDR S. epidermidis (G+) as representatives.

E. coli [5] = test: as above
Text: as §7, §8

S. epidermidis [6] = test: as above; settings: TriPE-NT without or with light irradiation (4 mW cm^−2, 30 min)
Text: as §7, §8

MDR S. epidermidis = test: as above; settings: TriPE-NT without or with light irradiation (4 mW cm^−2, 30 min)
Text: as §7, §8

E. coli [7] = test: Light-enhanced bacteria killing, plate counting method
Description: (§9) FIGS. 15C-F are graphs depicting bacteria survival rates for bacteria that were incubated with TriPE-NT (10 μM) for 10 min, the bacteria suspensions (50 μL) were plated on agar plates and treated by white-light illumination (4 mW cm^−2) for 0, 2 and 30 min respectively. FIG. 15C is a graph plotting survival rate versus time of E. coli and MDR E. coli. FIG. 15D is a graph plotting survival rate versus time of K. pneumoniae and MDR K. pneumoniae. FIG. 15E is a graph plotting survival rate versus time of S. epidermidis and MDR S. epidermidis. FIG. 15F is a graph plotting survival rate versus time of S. aureus and MDR S. aureus.
(§10) FIGS. 16A-B are graphs depicting bacteria survival rates for bacteria that were incubated with TriPE-NT (0, 5, 10 μM) for 0 (S-0) and 10 (S-10) min, the bacteria suspensions (50 μL) were plated on agar plates and treated by white-light illumination (4 mW cm^−2) for 2 (I-2), 10 (I-10) and 30 (I-30) min respectively. FIG. 16A is a graph plotting the survival rate versus time of E. coli. FIG. 16B is a graph plotting the survival rate versus time of S. epidermidis.
(§11) The bacteria killing effect of TriPE-NT was evaluated on both wild and clinically isolated MDR bacteria by a traditional plate counting method. First, E. coli and S. epidermidis, as the representative of Gram-negative (G−) and Gram-positive (G+) bacteria, were used to determine the effective bactericidal concentration and illumination time. The bacteria were incubated with TriPE-NT (0, 5, 10 μM) for 0 and 10 min, the bacteria suspensions (50 μL) were plated on agar plates and treated by white-light illumination (4 mW cm^−2) for 2, 10 and 30 min respectively (FIGS. 16A-B). […] Thus, 10 μM TriPE-NT and light irradiation for 2 min or 30 min were set as experimental conditions in the following experiments.

S. epidermidis [8] = test: as above; settings: 5 μM, light irradiation of 2 min
Description: as §9, §10, §11

[9] = 2, 5, 10 and 20 RM, absence of white light irradiation
[10] = white light 4 mW cm^−2, 2 and 30 min
[11] = TriPE-NT in the absence of white light
[12] = TriPE-NT with light irradiation

COc1ccc(C(=Cc2ccc(-c3ccc4c5c(cccc35)C(=O)N(CCCCn3c[n+](Cc5ccc(F)cc5F)cn3)C4=O)cc2)c2ccc(OC)cc2)cc1 [TriPE-NT]
cell viability of HUVECs [1, 9]: not significantly changed | cytotoxicity to HUVECs with increase of irradiation time [1, 10]: no obvious cytotoxicity | cell viability of HAFs [2, 9]: not significantly changed | cytotoxicity to HAFs with increase of irradiation time [2, 10]: no obvious cytotoxicity | percentage of E. coli co-stained by TriPE-NT and PI (dead bacteria) (E. coli [3]; 10 μM TriPE-NT and PI): 22.1±12.2% | percentage of E. coli stained by TriPE-NT (E. coli [3]; 10 μM): 88.1±9.8% | percentage of S. epidermidis co-stained by TriPE-NT and PI (dead bacteria) (S. epidermidis [4]; 10 μM TriPE-NT and PI): 80.9±15.8% | percentage of S. epidermidis stained by TriPE-NT (S. epidermidis [4]; 10 μM): 96.2±5.6% | morphology of MDR E. coli (MDR E. coli; [11]): obvious rough surface and damaged cell wall | morphology of MDR E. coli (MDR E. coli; [12]): cell wall fragmentations | morphology of E. coli (E. coli [5]; [11]): obvious rough surface and damaged cell wall | morphology of E. coli (E. coli [5]; [12]): cell wall fragmentations | morphology of S. epidermidis (S. epidermidis [6]): wrinkled bacterial cell wall | morphology of MDR S. epidermidis (MDR S. epidermidis): wrinkled bacterial cell wall | E. coli killed (E. coli [7]; 10 μM, white light 4 mW cm^−2, 30 min): killed all and all | survival rate of E. coli (E. coli [7]; in darkness, 10 μM TriPE-NT): approximately 6.8±0.6% | S. epidermidis killed (S. epidermidis [8]): all S. epidermidis were killed
